From patent US9226911B2, “Method of reducing weight using composition containing fucoxanthin extract” (BEIJING GINGKO GROUP BIOLOGICAL TECHNOLOGY CO., LTD., priority 2009, dated 2016)
Marks after values point to notes of the source that are not given here.

What was measured:
[1] = test system: model rats with alimentary obesity; test: Example 4: body weight of rats with high-fat-feed alimentary obesity, 30 d intragastric administration; assay type: in vivo, SD rats; conditions: x ± s; for Body weight (g) (after experiment): after 30 d intragastric; for Body weight (g) (before experiment): baseline after 1 month high-fat feed, 10 rats per group
Protocol: (§1) Test substances: Formulations are prepared according to the ratios shown in Table 4 Formulations for feeding animals: high-fat feed is composed of 80% basic feed, 10% lard and 10% yolk powder.
(§2) Grouping and treatment of the test animals: 80 grown-up male healthy SD clean grade rats (body weight 180-210 g) are adaptively fed with basic feed for a week, 10 are used as basic feed control, the rest are fed with high-fat feed. A month later, the group of rats fed with high-fat feed is randomly grouped into 7 groups according to their weights, 10 in each group: model control, fucoxanthin (A), tocotrienols(B), fucoidan(C), composition A+B+C, composition A+B and composition A+C. The group of basic feed keeps on feeding with basic feed, the rest groups are fed with high-fat feeds. The groups of basic feed and model control are intragastrically administrated with distilled water, the rest groups are intragastrically administrated with tested medicines, all administrated for 30 d. The groups of animals are raised in different cages in rooms with the temperature conditioned at (22±2) ° C. and under natural illumination. The rats take food and water freely. Each week, their body weights are measured and the amounts of food they take are observed and recorded. They are weighted after feeding for 30 d.
(§3) Statistical analysis: the variance from the data collected in this experiment is analyzed with SAS package, Dunnett's t test is used to compare statistically the results from different groups, the results of P<0.05 is decided as statistically significant.

[2] = test system: model rats with alimentary obesity; test: Example 6: fat pads around the testicles in model rats with alimentary obesity; assay type: in vivo, SD rats; conditions: x ± s, 30 days, A 362.5 μg, B 18.12 μg, C 9.06 mg
Protocol: as §1, §2, §3
The procedure was the same as in Example 4. After feeding for 30 days and weighing, executing all the rats, the fat pads around the testicles were peeled off and weighed accurately. Statistical analysis was carried out as in Example 4.

[3] = test system: model rats with alimentary obesity; test: Example 7: fat pads around the kidneys in model rats with alimentary obesity; assay type: in vivo, SD rats; conditions: x ± s; 30 d; A 181.23 μg, B 398.7 μg, C 1.81 mg
Protocol: as §1, §2, §3
The procedure was the same as in Example 4. After feeding for 30 d and weighing, executing all the rats, the fat pads around the kidneys were taken out and weighed accurately. Statistical analysis was carried out as in Example 4.

[4] = test system: model rats with alimentary obesity; test: Example 5: abdomen fat in model rats with alimentary obesity; assay type: in vivo, SD rats; conditions: x ± s, 30 d, A 9.06 μg, B 36.25 μg, C 18.12 mg (A + B: A 36.25 μg [sic])
Protocol: as §1, §2, §3
The procedure was the same as in Example 4. After feeding for 30 d and weighing, executing all the rats, the abdomen fat was peeled off and weighed accurately. Statistical analysis was carried out as in Example 4

[5] = test system: test subjects; test: Example 8: clinic intake trial, body weight and abdomen fat areas by CT; assay type: in vivo, human
From the text: To examine the weight reducing effect of fucoxanthin composition by means of random control method, 20 eligible test subjects of the age of 20 to 50 were divided into 5 groups, A+B+C, A+C, A+B, A, B+C, with random figure table method. The number of the subjects in each group was n=4. The daily doses of the medicines taken by the subjects were according to Table 12. Apart from being administrated with each of the different tested medicines at the breakfast time according to the set way of taking the medicine, other normal life style and dietetic habit of the subjects were not changed. No low-calorie food recipe was required, no restriction to the food and drink was executed and no extra physical training was carried out. To examining the effect of sampling of the medicine, the subjects were respectively examined before sampling of the medicine and 1 month, 2 and 3 months after the sampling. That is, the bodyweight, waist- and hiplines, blood sugar and blood fat were measured, abdomen CT scanning was carried out and so on. The subjects were periodically followed-up to find out the experiences and to supervise and guarantee compliance of the customers in taking the medicine. For the test, those suffered from serious metabolic diseases that need medicinal control and those taken other weight reducing products had been excluded.
Abdomen fat areas were measured with CT • Instrument: CT Model Pronto; Hitachi, Japan. • 120 kV, 175 mA • Layer thickness of the scanning: 10 mm • Scanning in the umbilical cross-section • Attenuation of the adipose tissue: −250˜−50 HU (CT Unit) • Calculation of the fat areas: total abdomen fat, visceral- and subcutaneous fat (mm^2)
Using CT Scanning, total fat—as well as visceral fat areas were marked out across the umbilical cross-section, the areas were measured respectively, the area of subcutaneous fat was obtained as the difference of both areas.

[6] = per rat A 36.25 μg, B 36.25 μg, C 0.4 mg
[7] = over 30 d intragastric, per rat A 36.25 μg, B 36.25 μg, C 0.4 mg
[8] = n = 4, after vs before, daily dose A 2 mg, B 2 mg, C 22 mg
[9] = x ± s, n = 4, CT, oral daily dose A 2 mg, B 2 mg, C 22 mg

## fucoidan
[1]; [6]
  Body weight (g) (after experiment): 546.59 ± 18.64 g
[1]
  Body weight (g) (before experiment): 486.69 ± 21.12 g
[1]; [7]
  Weight increased: 59.90 ± 18.11 g
[2]
  Body weight (g) (after experiments): 546.59 ± 18.64 g
  Fat pad weight around the testicles: 9.11 ± 0.48 g
[2]; in % (unit assumed)
  Fat pad weight around the testicles/body weight: 1.67 ± 0.13
[3]
  Body weight (g) (after experiments): 546.59 ± 18.64 g
  Total weight of fat pads around the kidneys: 9.29 ± 0.61 g
  Total weight of fat pads around the kidneys/body weight: 1.70 ± 0.13
[4]
  Abdomen fat: 12.99 ± 1.23 g
  Body weight (g) (after experiment): 546.59 ± 18.64 g
[4]; in % (unit assumed)
  Weight of abdomen fat/body weight: 2.38 ± 0.13

## fucoxanthin
[1]; [6]
  Body weight (g) (after experiment): 530.18 ± 20.32Δ g
[1]
  Body weight (g) (before experiment): 486.50 ± 22.10 g
[1]; [7]
  Weight increased(g): 43.68 ± 19.13Δ g
[2]
  Body weight (g) (after experiments): 530.18 ± 20.32 g
  Fat pad weight around the testicles (g): 7.32 ± 0.83Δ g
  Fat pad weight around the testicles/body weight: 1.38 ± 0.11Δ
[3]
  Body weight (g) (after experiments): 530.18 ± 20.32 g
  Total weight of fat pads around the kidneys (g): 7.42 ± 0.60Δ g
  Total weight of fat pads around the kidneys/body weight: 1.42 ± 0.12Δ
[4]
  Abdomen fat (g): 9.58 ± 1.99Δ g
  Body weight (g) (after experiment): 530.18 ± 20.32 g
  Weight of abdomen fat/body weight: 1.81 ± 0.13Δ
[5]; clinic trial, P<0.05
  effects compared with B+C group: more significant than B+C group
[5]; [8]
  The area of subcutaneous fat, Decrease (%): 6.10%
  The area of visceral fat, Decrease (%): 4.20%
  Total abdomen fat area, decrease: 5.68%
[5]; n = 4, oral daily dose A 2 mg, B 2 mg, C 22 mg, after vs before
  Body weight Change: decrease by: by 1.5%
[5]; x ± s, n = 4, CT, difference of total and visceral fat areas, baseline
  The area of subcutaneous fat, Before clinic experiment: 15514 ± 1192 mm^2
[5]; x ± s, n = 4, CT, difference of total and visceral fat areas, daily dose A 2 mg, B 2 mg, C 22 mg
  The area of subcutaneous fat, After clinic experiment: 14568 ± 1225* mm^2
[5]; x ± s, n = 4, CT, umbilical cross-section, baseline
  Total abdomen fat area, Before clinic experiment: 36555 ± 1645 mm^2
[5]; x ± s, n = 4, CT, baseline
  The area of visceral fat, Before clinic experiment: 17380 ± 1185 mm^2
[5]; [9]
  The area of visceral fat, After clinic experiment: 16650 ± 1484* mm^2
  Total abdomen fat area, After clinic experiment: 34479 ± 1475 mm^2
[5]; x ± s, n = 4, baseline
  Body weight, Before clinic experiment: 68.4 ± 0.13 kg
[5]; x ± s, n = 4, oral daily dose A 2 mg, B 2 mg, C 22 mg
  Body weight, After clinic experiment: 67.37 ± 0.11 kg
